We go through 1 molecule from patent US5166201A, “2β,19-ethylene bridged steroids as aromatase inhibitors” (Merrell Dow Pharmaceuticals Inc., priority 1990, dated 1992).

The experiment concerns the target T1, aromatase (Homo sapiens, UniProt P11511).
T1 construct: microsomal protein per ml of assay buffer; from tissue; host or cells: microsomes
T1 sequence (P11511 1-503): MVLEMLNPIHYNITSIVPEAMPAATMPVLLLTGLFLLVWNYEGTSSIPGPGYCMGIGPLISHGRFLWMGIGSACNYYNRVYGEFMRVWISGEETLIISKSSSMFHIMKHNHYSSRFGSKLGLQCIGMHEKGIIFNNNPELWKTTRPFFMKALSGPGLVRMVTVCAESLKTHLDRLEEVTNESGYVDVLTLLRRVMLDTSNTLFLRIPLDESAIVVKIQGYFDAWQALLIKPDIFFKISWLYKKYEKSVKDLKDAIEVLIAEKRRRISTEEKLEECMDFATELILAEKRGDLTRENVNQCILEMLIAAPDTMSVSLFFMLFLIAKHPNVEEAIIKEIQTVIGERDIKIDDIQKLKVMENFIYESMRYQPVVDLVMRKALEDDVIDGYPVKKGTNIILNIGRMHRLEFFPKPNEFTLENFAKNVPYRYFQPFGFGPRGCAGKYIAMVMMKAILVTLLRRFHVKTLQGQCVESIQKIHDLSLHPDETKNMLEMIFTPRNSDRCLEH
Description: time-dependent aromatase inhibition assay (preincubation, Kitz-Wilson analysis). In kind it is biochemical. As for the experimental part: In this assay, the inhibitor is preincubated with enzyme prior to assaying for activity in the presence of high substrate levels. A time-related decrease in enzyme activity can be indicative of irreversible binding […] a preferred method of inhibition.
In the time-dependent assay, an amount of the enzyme inhibitor in 100 μl of the assay buffer described above which will provide assay concentrations which are usually between 1 nM and 10 μm are added to 35-ml centrifuge tubes containing 600 μl of the NADPH generating system. The preincubation is started by the addition of 700 μl of aromatase preparation, usually 300-800 μg of microsomal protein per ml of assay buffer. These preparations are mixed using a vortex mixer and incubated for 0, 5, 10 or 20 minutes at 25° C. Then 100 μl of androstenedione (-6.8 μM) containing 1β-^3 H androstenedione is added in assay buffer to provide an assay concentration of substrate (0.55 μM) which is at least ten times the Km of androstenedione (0.04 μM). Following vortexing, the enzyme incubation is continued for 10 minutes before being terminated by the addition of chloroform. The amount of radioactivity in the aqueous fraction is determined by scintillation procedures. The enzymatic activity for each concentration of inhibitor at each time period of preincubation is calculated as a percent of the "0" minute vehicle control arbitrarily set at 100%. Therefore, the present enzyme inhibition is expressed as a percentage: (100 percent minus percent enzyme activity with inhibitor present).
Enzyme kinetic analysis utilized Kitz-Wilson plots for time-dependent assays. These analyses provide estimates of apparent Ki of inactivation which represents the inhibitor concentration required to produce half-maximal rate of enzyme inactivation. The pseudo first-order rate constant for enzyme inactivation (kcat) and the half-time of inactivation (.tau.50) of infinite inhibitor concentrations were determined. […]

Turning to `C[C@]12CC[C@H]3[C@@H](CCC4=CC(=O)[C@H]5CCC[C@]43C5)[C@@H]1CCC2=O` [2β,19-(ethylene)androst-4-ene-3,17-dione], the kinact/KI (Kitz-Wilson analysis, read-out: kcat /Ki (inactivation) ratio, index of efficiency of enzyme inactivation) was 558000 M⁻¹ s⁻¹. Besides, the “half-time of inactivation (.tau.50) at infinite inhibitor concentration” value (Kitz-Wilson plot, microsomal aromatase preparation, 25° C.) turned out to be 0.87 min. Also, the KI (inactivation) (Kitz-Wilson plot, microsomal aromatase preparation, preincubation 0-20 min at 25° C., androstenedione 0.55 μM, read-out: apparent Ki of inactivation) turned out to be 23.9 nM.
